The values that follow come from ChEMBL document CHEMBL5365434, “Cyclic Diguanylate G-Quadruplex Inducer-Nitric Oxide Donor Conjugate as a Bifunctional Antibiofilm Agent and Antibacterial Synergist against Pseudomonas aeruginosa with a Hyperbiofilm Phenotype” (J Med Chem, 2023).

Data set [1] relates to Pseudomonas aeruginosa. Kind of data set: Anti-motility activity against Pseudomonas aeruginosa PAO1 delta wspF assessed as promotion of swarming motility measured after 24 hrs. Format: functional, organism-based. Conditions: dose 0.156-1.25 µM.
Data set [2] concerns Quadruplex DNA. Kind of data set: Induction of c-diGMP G quadruplex formation at 30 uM incubated for 12 hrs by circular dichroism analysis. Type of data set: nucleic-acid assay. A general note: Circular dichroism is widely used to follow secondary structure.
Data set [3] relates to Pseudomonas aeruginosa. The data set can be described thus: Antibiofilm activity against Pseudomonas aeruginosa PAO1 delta wspF at 1.25 uM measured after 24 hrs by crystal violet staining based analysis. Format: functional, organism-based.
Data set [4] relates to Pseudomonas aeruginosa. The data set can be described thus: Antibacterial activity against Pseudomonas aeruginosa PAO1 delta wspF assessed as reduction in c-di-GMP induced EMP production at 0.156 to 1.25 uM incubated for 3 hrs by Congo red dye based spectrophotometric assay. Type of data set: functional, organism-based. To be noted: dose 0.156-1.25 µM.
The subject of data set [5] is Pseudomonas aeruginosa. The data set can be described thus: Antibacterial activity against Pseudomonas aeruginosa PAO1 delta wspF assessed as reduction in c-di-GMP induced EMP production at 1.25 uM incubated for 3 hrs by Congo red dye based spectrophotometric assay relative to control. Also noted: scale not given: the % may be the effect or the level left. Type of data set: functional.

The subject of data set [6] is Vero. The data set can be described thus: Cytotoxicity against African green monkey Vero cells at 0.156 to 20 uM measured after 24 hrs by MTT assay relative to control. To be noted: chlorocebus sabaeus, dose 0.156-20 µM. Type of data set: toxicity, cell-based.
Data set [7] relates to DNA. Kind of data set: Induction of pBR322 DNA (unknown origin) damage assessed as DNA embedding effect by measuring tail formation incubated for 10 mins by electrophoresis assay. Type of data set: toxicity.
Data set [8] concerns Pseudomonas aeruginosa. The data set can be described thus: Synergistic antibacterial activity against Pseudomonas aeruginosa PAO1 delta wspF assessed as inhibition of reproduction of biofilm bacteria at upto 40 uM incubated for 15 hrs in presence of tobramycin by checker board assay. Format: functional, organism-based.
Data set [9] relates to Pseudomonas aeruginosa. The data set can be described thus: Antibacterial activity against Pseudomonas aeruginosa PAO1 delta wspF assessed as inhibition of biofilm formation at 1.25 uM incubated for 24 hrs relative to control. Type of data set: functional. Also noted: scale not given: the % may be the effect or the level left.
Data set [10] deals with Pseudomonas aeruginosa. The data set can be described thus: Antibacterial activity against Pseudomonas aeruginosa PAO1 delta wspF assessed as eradication of preformed bacterial biofilm at 0.625 to 40 uM incubated for 15 hrs by crystal violet staining based analysis. Type of data set: functional, organism-based. To be noted: dose 0.625-40 µM.
In data set [11] the test system is Pseudomonas aeruginosa. The data set can be described thus: Antibacterial activity against Pseudomonas aeruginosa PAO1 delta wspF assessed as eradication of mature biofilm at 0.16 to 40 uM incubated for 15 hrs by crystal violet staining based analysis relative to control. Conditions: dose 0.16-40 µM. Type of data set: functional.
The subject of data set [12] is Caenorhabditis elegans. Kind of data set: Synergistic anti-infective activity against Caenorhabditis elegans assessed as survival rate at 0.16 to 20 uM incubated for 24 hrs in presence of tobramycin relative to control. To be noted: dose 0.16-20 µM. Type of data set: functional.
The test system of data set [13] is Pseudomonas aeruginosa. Kind of data set: Synergistic antibacterial activity against Pseudomonas aeruginosa PAO1 delta wspF assessed as inhibition of reproduction of biofilm bacteria at high concentration incubated for 15 hrs in presence of tobramycin by checker board assay. Type of data set: functional, organism-based.
The test system of data set [14] is Pseudomonas aeruginosa. Kind of data set: Antibiofilm activity against Pseudomonas aeruginosa PAO1 delta wspF assessed as increase in number of planktonic bacteria at 1.25 to 10 uM incubated for 2 hrs. Format: functional, organism-based. To be noted: dose 1.25-10 µM.
Data set [15] is described as follows: Cytotoxicity against African green monkey Vero cells assessed as survival rate at 0.156 to 20 uM measured after 48 hrs by MTT assay relative to control. Type of data set: toxicity, cell-based. Conditions: chlorocebus sabaeus, dose 0.156-20 µM, read-out: Survival. (Formazan colour is commonly taken as a measure of viable cells.)
The test system of data set [16] is Pseudomonas aeruginosa. The data set can be described thus: Synergistic antibacterial activity Pseudomonas aeruginosa PAO1 delta wspF assessed as fold reduction in survival of biofilm bacteria at 1.25 to 10 uM incubated for 15 hrs in presence of tobramycin by checker board assay. Format: functional. Conditions: dose 1.25-10 µM.
Data set [17] deals with Pseudomonas aeruginosa. The data set can be described thus: Antibacterial activity against Pseudomonas aeruginosa PAO1 delta wspF assessed as eradication of preformed bacterial biofilm at 1.25 uM incubated for 15 hrs by crystal violet staining based analysis relative to control. Type of data set: functional.
For data set [18], the system named is Caenorhabditis elegans. The data set can be described thus: Synergistic anti-infective activity against Caenorhabditis elegans assessed as survival rate at 10 uM incubated for 24 hrs in presence of tobramycin relative to control. Type of data set: functional.
The test system of data set [19] is Pseudomonas aeruginosa. Kind of data set: Synergistic antibacterial activity against Pseudomonas aeruginosa PAO1 delta wspF assessed as inhibition of reproduction of biofilm bacteria at 2X MBC in presence of streptozocin by checker board assay. Type of data set: functional, organism-based.
The test system of data set [20] is Caenorhabditis elegans. The data set can be described thus: Anti-infective activity against Caenorhabditis elegans assessed as survival rate at MBC level incubated for 24 hrs relative to control. Format: functional.

Activity calls are given as the source filed them. The rule behind the calls is not given here.

With `CNc1ccc(/C=C/c2sc3ccccc3[n+]2C)cc1OC.[I-]`, the Activity result in data set [1] is “Dose-Dependent Effect”; in data set [5], under 50%; in [6], over 98%; in [7], “Not Active”; in data set [9] it was 60%. For the same compound, the outcome in data set [2], in data set [3] and in data set [4] was Active. Besides, the result in [8] and in data set [10] was inactive.
Regarding `CN(N=O)C(=O)N[C@@H](C=O)[C@@H](O)[C@H](O)[C@H](O)CO` [STREPTOZOCIN], the figures for the Activity in data set [11] and in data set [12] were 30% and 25%, respectively.
Regarding `CCNc1ccc(/C=C/c2ccc3ccccc3[n+]2C)cc1`, the outcome in [2] and in data set [3] was Active.
In the case of `COc1cc(/C=C/c2sc3ccccc3[n+]2C)ccc1N(C)N=O.[I-]`, the outcome in data set [13] and in data set [14] was Active. Further, the viability at 48 h, up to 20 µM in data set [15] is 80%. Further, in data set [16], the “fold change (FC)” value was found to be 1000. The figures for the Activity in data set [9], in [17] and in [18] were 80%, 40% and 60%, respectively.
As to `CN1/C(=C/c2cc[n+](C)c3ccccc23)Sc2ccccc21.Cc1ccc(S(=O)(=O)[O-])cc1`, the values for the Activity result in data set [7] and in [20] were “Active” and 20%, respectively. For the same compound, the result in data set [19] was Active.
Consider `CC(C)Nc1ccc(/C=C/c2sc3ccccc3[n+]2C)cc1`, for which the result in data set [2] and in data set [3] was Active.
On to `CCNc1ccc(/C=C/c2sc3ccccc3[n+]2C)cc1`, for which the outcome in data set [2] and in data set [3] was Active.
With `CCCNc1ccc(/C=C/c2sc3ccccc3[n+]2C)cc1`, the result in data set [2] and in data set [3] was Active.
`CNc1ccc(/C=C/c2ccc3ccccc3[n+]2C)cc1`: the outcome in data set [2] and in data set [3] was Active.
With `CNc1ccc(/C=C/c2sc3ccccc3[n+]2C)cc1`, the outcome in data set [2] and in [3] was Active.
On to `CCCNc1ccc(/C=C/c2ccc3ccccc3[n+]2C)cc1`, for which the result in data set [2] and in data set [3] was Active.
